Test results: PMC12749166, “Fragment-based drug design of a bacterial kinase inhibitor capable of increasing the antibiotic sensitivity of clinical isolates” (Communications Chemistry, 2025)

What was measured:
APH(3’)-IIa = target: T1, APH(3’)-IIa (Klebsiella pneumoniae, UniProt P00552); experiment: Isothermal Titration Calorimetry; assay type: binding, K. pneumoniae
T1 construct: His-tag (inferred from HisTrap purification); made in house; host or cells: E. coli BL21
Protocol: ITC experiments were performed on three different machines: a MicroCal VP-ITC (GE Healthcare), a MicroCal PEAQ-ITC (Malvern), or a MicroCal iTC200 (Malvern). The architecture and principles are similar for the three different systems. The experiments were carried out in Buffer HEPES at 25 °C. Titrations consisted of twenty injections of 1.5 µL inhibitors, every 120 seconds, into the measuring cell using the injection syringe rotating at 750 rpm. The data were analyzed using the MicroCal PEAQ-ITC software (v. 1.52, Malvern) using the single-site binding model to fit the raw data. The standard error of the Kd value was determined from measurements made on distinct samples (n indicated in the text).

S. aureus C0032 = experiment: Checkerboard assay of 83 with kanamycin A; assay type: cell-based; details: for MIC of kanamycin A: 0.125 µg mL^−1 imipenem, 18 h at 37 °C; for checkerboard well reading (growth): Supp. Figure 3 C
APH(3’)-IIb = target: T2, APH(3’)-IIb (Pseudomonas aeruginosa, UniProt Q9HWR2, M95L); experiment: biochemical
T2 sequence (Q9HWR2 1-268 M95L): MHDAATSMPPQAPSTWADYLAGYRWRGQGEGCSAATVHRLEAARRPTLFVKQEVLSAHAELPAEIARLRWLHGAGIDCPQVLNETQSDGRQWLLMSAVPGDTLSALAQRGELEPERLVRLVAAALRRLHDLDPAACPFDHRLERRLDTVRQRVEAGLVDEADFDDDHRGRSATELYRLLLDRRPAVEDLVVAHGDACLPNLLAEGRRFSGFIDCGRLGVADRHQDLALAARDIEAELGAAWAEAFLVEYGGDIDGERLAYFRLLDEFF
Protocol: The reaction mixture consists of the APH and its substrates, as well as a potential inhibitor for inhibition measurements. Reactions were initiated by adding the ATP solution supplemented or not with the inhibitor, in a thermostated beaker containing the APH. […] The reaction was stopped at several time points by adding 80 µL of the enzymatic reaction mixture from the beaker to 40 µL of 10% perchloric acid (PCA) in an Eppendorf tube. Samples were then centrifuged for 30 min at 12750 rpm and 8 °C. 100 µL of the supernatant was then mixed with 900 µL of mobile phase (250 mM NaH2PO4, 50% Acetonitrile, pH 5.5) supplemented with KOH to readjust the pH to 5.5 before injection. […] 100 µL of samples were injected on a SAX PartiSphere column (AIT France) at a flow rate of 1 mL min^−1. ATP and ADP peaks were integrated, and the area under the peaks was calculated using OpenLab CDS software (v. ChemStation, Agilent). The kss values were then measured using linear regression in GraFit software and IC50 determined by fitting with a hyperbola the percentage of inhibition as a function of inhibitor concentration. The standard error of the IC50 value was determined in the GraFit software based on the fitting of the experimental data.

T1 sequence (P00552 whole entry): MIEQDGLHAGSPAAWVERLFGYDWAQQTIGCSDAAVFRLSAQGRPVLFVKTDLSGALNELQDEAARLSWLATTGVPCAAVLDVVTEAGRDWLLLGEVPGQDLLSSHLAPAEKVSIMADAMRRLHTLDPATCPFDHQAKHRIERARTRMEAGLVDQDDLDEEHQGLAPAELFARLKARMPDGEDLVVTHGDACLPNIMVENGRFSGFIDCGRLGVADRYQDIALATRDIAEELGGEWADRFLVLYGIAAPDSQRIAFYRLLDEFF

Clc1cnc2[nH]ccc2c1-c1ccn[nH]1 [Compound 83]
Kd (APH(3’)-IIa): 1250 nM
ΔH (APH(3’)-IIa; ITC): -13.1 kcal/mol
MIC of kanamycin A (S. aureus C0032; [83] 2 µg mL^−1): 4096 µg/mL
MIC of kanamycin A (S. aureus C0032; [83] 4 µg mL^−1): 4096 µg/mL
MIC of kanamycin A (S. aureus C0032; [83] 8 µg mL^−1): 4096 µg/mL
MIC of kanamycin A (S. aureus C0032; [83] 16 µg mL^−1): 4096 µg/mL
MIC of kanamycin A (S. aureus C0032; [83] 32 µg mL^−1): 2048 µg/mL
MIC of kanamycin A (S. aureus C0032; [83] 64 µg mL^−1): 2048 µg/mL
MIC of kanamycin A (S. aureus C0032; [83] 128 µg mL^−1): 2048 µg/mL
checkerboard well reading (growth) (S. aureus C0032; 83 1 µg.mL-1, kanamycin A 0 µg.mL-1): 0.496
checkerboard well reading (growth) (S. aureus C0032; 83 1 µg.mL-1, kanamycin A 2 µg.mL-1): 0.320
checkerboard well reading (growth) (S. aureus C0032; 83 1 µg.mL-1, kanamycin A 4 µg.mL-1): 0.317
checkerboard well reading (growth) (S. aureus C0032; 83 1 µg.mL-1, kanamycin A 8 µg.mL-1): 0.300
checkerboard well reading (growth) (S. aureus C0032; 83 1 µg.mL-1, kanamycin A 16 µg.mL-1): 0.287
checkerboard well reading (growth) (S. aureus C0032; 83 1 µg.mL-1, kanamycin A 32 µg.mL-1): 0.279
checkerboard well reading (growth) (S. aureus C0032; 83 1 µg.mL-1, kanamycin A 64 µg.mL-1): 0.255
checkerboard well reading (growth) (S. aureus C0032; 83 1 µg.mL-1, kanamycin A 128 µg.mL-1): 0.294
checkerboard well reading (growth) (S. aureus C0032; 83 2 µg.mL-1, kanamycin A 0 µg.mL-1): 0.442
checkerboard well reading (growth) (S. aureus C0032; 83 2 µg.mL-1, kanamycin A 2 µg.mL-1): 0.315
checkerboard well reading (growth) (S. aureus C0032; 83 2 µg.mL-1, kanamycin A 4 µg.mL-1): 0.311
checkerboard well reading (growth) (S. aureus C0032; 83 2 µg.mL-1, kanamycin A 8 µg.mL-1): 0.299
checkerboard well reading (growth) (S. aureus C0032; 83 2 µg.mL-1, kanamycin A 16 µg.mL-1): 0.295
checkerboard well reading (growth) (S. aureus C0032; 83 2 µg.mL-1, kanamycin A 32 µg.mL-1): 0.268
checkerboard well reading (growth) (S. aureus C0032; 83 2 µg.mL-1, kanamycin A 64 µg.mL-1): 0.246
checkerboard well reading (growth) (S. aureus C0032; 83 2 µg.mL-1, kanamycin A 128 µg.mL-1): 0.245
checkerboard well reading (growth) (S. aureus C0032; 83 4 µg.mL-1, kanamycin A 0 µg.mL-1): 0.451
checkerboard well reading (growth) (S. aureus C0032; 83 4 µg.mL-1, kanamycin A 2 µg.mL-1): 0.356
checkerboard well reading (growth) (S. aureus C0032; 83 4 µg.mL-1, kanamycin A 4 µg.mL-1): 0.318
checkerboard well reading (growth) (S. aureus C0032; 83 4 µg.mL-1, kanamycin A 8 µg.mL-1): 0.313
checkerboard well reading (growth) (S. aureus C0032; 83 4 µg.mL-1, kanamycin A 16 µg.mL-1): 0.286
checkerboard well reading (growth) (S. aureus C0032; 83 4 µg.mL-1, kanamycin A 32 µg.mL-1): 0.267
checkerboard well reading (growth) (S. aureus C0032; 83 4 µg.mL-1, kanamycin A 64 µg.mL-1): 0.243
checkerboard well reading (growth) (S. aureus C0032; 83 4 µg.mL-1, kanamycin A 128 µg.mL-1): 0.258
checkerboard well reading (growth) (S. aureus C0032; 83 8 µg.mL-1, kanamycin A 0 µg.mL-1): 0.402
checkerboard well reading (growth) (S. aureus C0032; 83 8 µg.mL-1, kanamycin A 2 µg.mL-1): 0.304
checkerboard well reading (growth) (S. aureus C0032; 83 8 µg.mL-1, kanamycin A 4 µg.mL-1): 0.300
checkerboard well reading (growth) (S. aureus C0032; 83 8 µg.mL-1, kanamycin A 8 µg.mL-1): 0.292
checkerboard well reading (growth) (S. aureus C0032; 83 8 µg.mL-1, kanamycin A 16 µg.mL-1): 0.282
checkerboard well reading (growth) (S. aureus C0032; 83 8 µg.mL-1, kanamycin A 32 µg.mL-1): 0.271
checkerboard well reading (growth) (S. aureus C0032; 83 8 µg.mL-1, kanamycin A 64 µg.mL-1): 0.244
checkerboard well reading (growth) (S. aureus C0032; 83 8 µg.mL-1, kanamycin A 128 µg.mL-1): 0.258
checkerboard well reading (growth) (S. aureus C0032; 83 16 µg.mL-1, kanamycin A 0 µg.mL-1): 0.581
checkerboard well reading (growth) (S. aureus C0032; 83 16 µg.mL-1, kanamycin A 2 µg.mL-1): 0.303
checkerboard well reading (growth) (S. aureus C0032; 83 16 µg.mL-1, kanamycin A 4 µg.mL-1): 0.295
checkerboard well reading (growth) (S. aureus C0032; 83 16 µg.mL-1, kanamycin A 8 µg.mL-1): 0.293
checkerboard well reading (growth) (S. aureus C0032; 83 16 µg.mL-1, kanamycin A 16 µg.mL-1): 0.274
checkerboard well reading (growth) (S. aureus C0032; 83 16 µg.mL-1, kanamycin A 32 µg.mL-1): 0.258
checkerboard well reading (growth) (S. aureus C0032; 83 16 µg.mL-1, kanamycin A 64 µg.mL-1): 0.242
checkerboard well reading (growth) (S. aureus C0032; 83 16 µg.mL-1, kanamycin A 128 µg.mL-1): 0.200
checkerboard well reading (growth) (S. aureus C0032; 83 32 µg.mL-1, kanamycin A 0 µg.mL-1): 0.378
checkerboard well reading (growth) (S. aureus C0032; 83 32 µg.mL-1, kanamycin A 2 µg.mL-1): 0.299
checkerboard well reading (growth) (S. aureus C0032; 83 32 µg.mL-1, kanamycin A 4 µg.mL-1): 0.294
checkerboard well reading (growth) (S. aureus C0032; 83 32 µg.mL-1, kanamycin A 8 µg.mL-1): 0.273
checkerboard well reading (growth) (S. aureus C0032; 83 32 µg.mL-1, kanamycin A 16 µg.mL-1): 0.281
checkerboard well reading (growth) (S. aureus C0032; 83 32 µg.mL-1, kanamycin A 32 µg.mL-1): 0.249
checkerboard well reading (growth) (S. aureus C0032; 83 32 µg.mL-1, kanamycin A 64 µg.mL-1): 0.215
checkerboard well reading (growth) (S. aureus C0032; 83 32 µg.mL-1, kanamycin A 128 µg.mL-1): 0.082
checkerboard well reading (growth) (S. aureus C0032; 83 64 µg.mL-1, kanamycin A 0 µg.mL-1): 0.357
checkerboard well reading (growth) (S. aureus C0032; 83 64 µg.mL-1, kanamycin A 2 µg.mL-1): 0.295
checkerboard well reading (growth) (S. aureus C0032; 83 64 µg.mL-1, kanamycin A 4 µg.mL-1): 0.275
checkerboard well reading (growth) (S. aureus C0032; 83 64 µg.mL-1, kanamycin A 8 µg.mL-1): 0.274
checkerboard well reading (growth) (S. aureus C0032; 83 64 µg.mL-1, kanamycin A 16 µg.mL-1): 0.256
checkerboard well reading (growth) (S. aureus C0032; 83 64 µg.mL-1, kanamycin A 32 µg.mL-1): 0.227
checkerboard well reading (growth) (S. aureus C0032; 83 64 µg.mL-1, kanamycin A 64 µg.mL-1): 0.165
checkerboard well reading (growth) (S. aureus C0032; 83 64 µg.mL-1, kanamycin A 128 µg.mL-1): 0.053
checkerboard well reading (growth) (S. aureus C0032; 83 128 µg.mL-1, kanamycin A 0 µg.mL-1): 0.433
checkerboard well reading (growth) (S. aureus C0032; 83 128 µg.mL-1, kanamycin A 2 µg.mL-1): 0.365
checkerboard well reading (growth) (S. aureus C0032; 83 128 µg.mL-1, kanamycin A 4 µg.mL-1): 0.303
checkerboard well reading (growth) (S. aureus C0032; 83 128 µg.mL-1, kanamycin A 8 µg.mL-1): 0.296
checkerboard well reading (growth) (S. aureus C0032; 83 128 µg.mL-1, kanamycin A 16 µg.mL-1): 0.283
checkerboard well reading (growth) (S. aureus C0032; 83 128 µg.mL-1, kanamycin A 32 µg.mL-1): 0.276
checkerboard well reading (growth) (S. aureus C0032; 83 128 µg.mL-1, kanamycin A 64 µg.mL-1): 0.204
checkerboard well reading (growth) (S. aureus C0032; 83 128 µg.mL-1, kanamycin A 128 µg.mL-1): 0.066
Impact of 83 alone on bacterial growth (S. aureus C0032; absence of antibiotics, 83 from 0 to 128 µg mL^−1 (585 µM)): no impact on bacterial growth
IC50 (APH(3’)-IIb): 1230 ± 40 nM
